Data published in ChEMBL document CHEMBL3763148, “Synthesis, structure elucidation, DNA-PK and PI3K and anti-cancer activity of 8- and 6-aryl-substituted-1-3-benzoxazines” (Eur J Med Chem, 2016).

What was measured:
[1] = Cytotoxicity against human HCT116 cells assessed as cell growth inhibition at 10 uM after 48 hrs by SRB assay relative to control; format: functional; details: HCT-116, 48 h, read-out: GI
[2] = Cytotoxicity against human UACC257 cells assessed as cell growth inhibition at 10 uM after 48 hrs by SRB assay relative to control; format: functional; details: UACC-257, 48 h, read-out: GI
[3] = Cytotoxicity against human LOXIMVI cells assessed as cell growth inhibition at 10 uM after 48 hrs by SRB assay relative to control; format: functional; details: LOX IMVI, read-out: GI
[4] = molecular target: T1, Phosphatidylinositol 4,5-bisphosphate 3-kinase catalytic subunit delta isoform (Homo sapiens, UniProt O00329); experiment: Inhibition of PI3Kdelta (unknown origin) incubated for 60 mins by kinase-glo luminescence assay
T1 sequence (O00329 whole entry): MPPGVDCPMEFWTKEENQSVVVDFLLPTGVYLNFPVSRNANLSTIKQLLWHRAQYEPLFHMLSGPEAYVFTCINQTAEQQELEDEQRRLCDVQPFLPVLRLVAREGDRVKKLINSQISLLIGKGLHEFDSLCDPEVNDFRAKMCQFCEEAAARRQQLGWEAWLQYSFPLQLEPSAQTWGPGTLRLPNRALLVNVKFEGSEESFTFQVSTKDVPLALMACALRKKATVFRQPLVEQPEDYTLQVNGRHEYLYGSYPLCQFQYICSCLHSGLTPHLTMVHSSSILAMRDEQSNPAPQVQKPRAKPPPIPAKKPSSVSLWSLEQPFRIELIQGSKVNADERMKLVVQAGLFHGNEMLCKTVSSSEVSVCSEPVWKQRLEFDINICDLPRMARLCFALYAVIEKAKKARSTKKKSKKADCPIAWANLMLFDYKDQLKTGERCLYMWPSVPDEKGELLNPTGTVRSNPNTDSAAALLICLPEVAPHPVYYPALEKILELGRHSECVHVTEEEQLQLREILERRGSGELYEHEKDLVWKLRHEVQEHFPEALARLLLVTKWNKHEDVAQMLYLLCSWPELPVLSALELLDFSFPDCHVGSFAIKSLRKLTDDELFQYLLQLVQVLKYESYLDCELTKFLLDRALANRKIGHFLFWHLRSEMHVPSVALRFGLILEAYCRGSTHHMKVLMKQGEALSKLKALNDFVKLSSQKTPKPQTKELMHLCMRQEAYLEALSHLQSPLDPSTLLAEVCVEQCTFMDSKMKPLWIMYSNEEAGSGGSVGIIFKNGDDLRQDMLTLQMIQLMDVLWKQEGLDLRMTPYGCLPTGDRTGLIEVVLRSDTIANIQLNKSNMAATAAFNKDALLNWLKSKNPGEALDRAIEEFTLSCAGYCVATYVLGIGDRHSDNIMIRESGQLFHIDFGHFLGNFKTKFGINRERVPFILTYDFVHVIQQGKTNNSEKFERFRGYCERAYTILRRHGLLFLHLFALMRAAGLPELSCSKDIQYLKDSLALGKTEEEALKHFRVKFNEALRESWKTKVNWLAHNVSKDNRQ

[5] = Cytotoxicity against human SF539 cells assessed as cell growth inhibition at 10 uM after 48 hrs by SRB assay relative to control; format: functional; details: SF-539, 48 h, read-out: GI
[6] = Cytotoxicity against human HOP92 cells assessed as cell growth inhibition at 10 uM after 48 hrs by SRB assay relative to control; format: functional; details: HOP-92, 48 h, read-out: GI
[7] = molecular target: Phosphatidylinositol 4,5-bisphosphate 3-kinase catalytic subunit gamma isoform (Homo sapiens) (UniProt P48736); experiment: Inhibition of PI3Kgamma (unknown origin) at 10 uM incubated for 60 mins by kinase-glo luminescence assay
Chain of Phosphatidylinositol 4,5-bisphosphate 3-kinase catalytic subunit gamma isoform (Homo sapiens) (P48736 whole entry, looked up, canonical isoform): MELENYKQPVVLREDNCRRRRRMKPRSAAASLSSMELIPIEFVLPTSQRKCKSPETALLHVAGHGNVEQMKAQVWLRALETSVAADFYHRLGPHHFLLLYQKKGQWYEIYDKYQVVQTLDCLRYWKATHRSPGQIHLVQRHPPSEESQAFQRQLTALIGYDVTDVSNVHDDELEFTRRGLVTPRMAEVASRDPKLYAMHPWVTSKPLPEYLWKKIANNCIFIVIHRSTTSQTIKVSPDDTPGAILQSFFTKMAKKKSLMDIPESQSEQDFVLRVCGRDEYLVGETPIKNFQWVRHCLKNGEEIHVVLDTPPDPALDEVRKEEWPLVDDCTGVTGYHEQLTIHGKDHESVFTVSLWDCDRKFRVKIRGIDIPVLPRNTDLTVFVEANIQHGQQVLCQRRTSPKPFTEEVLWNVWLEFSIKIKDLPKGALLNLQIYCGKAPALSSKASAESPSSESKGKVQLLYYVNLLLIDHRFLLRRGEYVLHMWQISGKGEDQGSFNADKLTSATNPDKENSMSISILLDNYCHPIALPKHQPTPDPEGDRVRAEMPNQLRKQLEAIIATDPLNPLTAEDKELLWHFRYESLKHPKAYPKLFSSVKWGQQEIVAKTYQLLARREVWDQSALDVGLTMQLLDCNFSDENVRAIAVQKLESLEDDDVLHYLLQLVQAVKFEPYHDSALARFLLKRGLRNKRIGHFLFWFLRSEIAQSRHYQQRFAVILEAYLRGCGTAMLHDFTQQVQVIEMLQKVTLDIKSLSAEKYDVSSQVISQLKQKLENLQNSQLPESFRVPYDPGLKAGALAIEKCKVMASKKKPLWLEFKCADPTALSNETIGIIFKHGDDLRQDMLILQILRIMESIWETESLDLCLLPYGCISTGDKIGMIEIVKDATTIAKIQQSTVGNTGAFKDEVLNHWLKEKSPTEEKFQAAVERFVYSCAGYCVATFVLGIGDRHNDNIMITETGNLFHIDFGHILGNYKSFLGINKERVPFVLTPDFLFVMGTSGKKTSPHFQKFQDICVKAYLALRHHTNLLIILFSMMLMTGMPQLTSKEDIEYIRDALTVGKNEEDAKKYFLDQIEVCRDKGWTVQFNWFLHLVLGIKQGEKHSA

[8] = system: SK-MEL-2; experiment: Cytotoxicity against human SK-MEL-2 cells assessed as cell growth inhibition at 10 uM after 48 hrs by SRB assay relative to control; format: functional; details: SK-MEL-2, 48 h, read-out: GI
[9] = system: SK-MEL-5; experiment: Cytotoxicity against human SK-MEL-5 cells assessed as cell growth inhibition at 10 uM after 48 hrs by SRB assay relative to control; format: functional; details: SK-MEL-5, 48 h, read-out: GI
[10] = system: HT-29; experiment: Cytotoxicity against human HT-29 cells assessed as cell growth inhibition at 10 uM after 48 hrs by SRB assay relative to control; format: functional; details: HT-29, 48 h, read-out: GI
[11] = system: M14; experiment: Cytotoxicity against human M14 cells assessed as cell growth inhibition at 10 uM after 48 hrs by SRB assay relative to control; format: functional; details: M14, 48 h, read-out: GI
[12] = Cytotoxicity against human OVCAR3 cells assessed as cell growth inhibition at 10 uM after 48 hrs by SRB assay relative to control; format: functional; details: OVCAR-3, 48 h, read-out: GI
[13] = Cytotoxicity against human UO31 cells assessed as cell growth inhibition at 10 uM after 48 hrs by SRB assay relative to control; format: functional; details: UO-31, 48 h, read-out: GI
[14] = Cytotoxicity against human SF268 cells assessed as cell growth inhibition at 10 uM after 48 hrs by SRB assay relative to control; format: functional; details: SF-268, 48 h, read-out: GI
[15] = system: EKVX; experiment: Cytotoxicity against human EKVX cells assessed as cell growth inhibition at 10 uM after 48 hrs by SRB assay relative to control; format: functional; details: read-out: GI
[16] = Cytotoxicity against human SW620 cells assessed as cell growth inhibition at 10 uM after 48 hrs by SRB assay relative to control; format: functional; details: SW-620, 48 h, read-out: GI
[17] = Cytotoxicity against human RXF393 cells assessed as cell growth inhibition at 10 uM after 48 hrs by SRB assay relative to control; format: functional; details: RXF 393, 48 h, read-out: GI
[18] = Cytotoxicity against human SNB19 cells assessed as cell growth inhibition at 10 uM after 48 hrs by SRB assay relative to control; format: functional; details: SNB-19, 48 h, read-out: GI
[19] = Cytotoxicity against human SF295 cells assessed as cell growth inhibition at 10 uM after 48 hrs by SRB assay relative to control; format: functional; details: SF-295, 48 h, read-out: GI
[20] = Cytotoxicity against human HCT15 cells assessed as cell growth inhibition at 10 uM after 48 hrs by SRB assay relative to control; format: functional; details: HCT-15, 48 h, read-out: GI
[21] = Cytotoxicity against human SNB75 cells assessed as cell growth inhibition at 10 uM after 48 hrs by SRB assay relative to control; format: functional; details: SNB-75, 48 h, read-out: GI
[22] = system: A498; experiment: Cytotoxicity against human A498 cells assessed as cell growth inhibition at 10 uM after 48 hrs by SRB assay relative to control; format: functional; details: A498, 48 h, read-out: GI
[23] = system: NCI-H460; experiment: Cytotoxicity against human NCI-H460 cells assessed as cell growth inhibition at 10 uM after 48 hrs by SRB assay relative to control; format: functional; details: NCI-H460, 48 h, read-out: GI
[24] = system: NCI-H23; experiment: Cytotoxicity against human NCI-H23 cells assessed as cell growth inhibition at 10 uM after 48 hrs by SRB assay relative to control; format: functional; details: NCI-H23, 48 h, read-out: GI

| SMILES | inhibition of growth at 10 µM [1] [%] | inhibition of growth at 10 µM [2] [%] | inhibition of growth at 10 µM [3] [%] | IC50 [4] [µM] | inhibition of growth at 10 µM [5] [%] | inhibition of growth at 10 µM [6] [%] | inhibition [7] [%] | inhibition of growth at 10 µM [8] [%] | inhibition of growth at 10 µM [9] [%] | inhibition of growth at 10 µM [10] [%] | inhibition of growth at 10 µM [11] [%] | inhibition of growth at 10 µM [12] [%] | inhibition of growth at 10 µM [13] [%] | inhibition of growth at 10 µM [14] [%] | inhibition of growth at 10 µM [15] [%] | inhibition of growth at 10 µM [16] [%] | inhibition of growth at 10 µM [17] [%] | inhibition of growth at 10 µM [18] [%] | inhibition of growth at 10 µM [19] [%] | inhibition of growth at 10 µM [20] [%] | other results |
| --- | --- | --- | --- | --- | --- | --- | --- | --- | --- | --- | --- | --- | --- | --- | --- | --- | --- | --- | --- | --- | --- |
| O=c1nc(N2CCOCC2)oc2c(-c3ccsc3)cccc12 | 2.6 | 1.24 | 10.6 | 4.8 | -6.9 | 40.7 | 29 | -2.53 | 13.4 | 12.7 | 3.28 | 11.8 | 23.4 | 13.1 | 16.3 | 2.66 | 14.4 | -3.77 | 17.1 | 6.07 | inhibition of growth at 10 µM [21]: 38.8%; inhibition of growth at 10 µM [22]: 37.2%; inhibition of growth at 10 µM [23]: -4.22%; inhibition of growth at 10 µM [24]: 15.4% |
| O=c1nc(N2CCOCC2)oc2c(-c3cccs3)cccc12 | 2.65 | 3.74 | 14.4 | 4.5 | 1.52 | 44.4 | 16 | -7.08 | 13.3 | 6.61 | 0.86 | 2.61 | 20.2 | 5.21 | 14.1 | 1.09 | 9.88 | 5.86 | -0.99 | 0.33 | inhibition of growth at 10 µM [21]: 32.7%; inhibition of growth at 10 µM [22]: 36.8%; inhibition of growth at 10 µM [23]: -5.8%; inhibition of growth at 10 µM [24]: 13% |
